Measurements as given in patent US20120040930A1, “TETRACYCLIC TERPENE SERIES COMPOUNDS, METHODS FOR PREPARING SAME, USES THEREOF AS MEDICINES AND PHARMACEUTICAL COMPOUNDS CONTAINING SAME” (priority 2005, published 2012).
Read-outs that look alike come from different tables or passages of the source.

Experiments:
[1] = target: T1, acetylcholinesterase (AChE) isolated from Electrophorus electricus (Electrophorus electricus, UniProt O42275); experiment: biochemical; conditions: AChE isolated from Electrophorus electricus; read-out: AChE IC50
T1 construct: AChE isolated from Electrophorus electricus; from tissue
T1 sequence (O42275 24-633): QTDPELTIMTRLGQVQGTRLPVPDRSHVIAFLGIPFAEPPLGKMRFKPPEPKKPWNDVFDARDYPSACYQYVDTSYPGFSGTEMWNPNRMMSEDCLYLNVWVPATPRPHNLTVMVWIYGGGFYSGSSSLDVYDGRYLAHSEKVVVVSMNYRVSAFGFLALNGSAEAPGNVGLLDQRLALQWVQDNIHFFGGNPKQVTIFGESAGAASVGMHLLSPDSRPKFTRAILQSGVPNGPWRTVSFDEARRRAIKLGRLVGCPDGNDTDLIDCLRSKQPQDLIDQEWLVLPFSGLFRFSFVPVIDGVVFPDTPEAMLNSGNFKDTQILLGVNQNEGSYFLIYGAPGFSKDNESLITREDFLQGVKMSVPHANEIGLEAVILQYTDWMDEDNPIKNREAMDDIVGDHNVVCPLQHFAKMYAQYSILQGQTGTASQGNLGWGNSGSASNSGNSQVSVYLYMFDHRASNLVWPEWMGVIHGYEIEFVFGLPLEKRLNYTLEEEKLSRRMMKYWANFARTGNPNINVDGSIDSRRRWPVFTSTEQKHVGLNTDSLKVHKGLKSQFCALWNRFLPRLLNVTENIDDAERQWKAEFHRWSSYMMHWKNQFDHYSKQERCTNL

[2] = test system: muscle nicotinic acetylcholine receptors; experiment: Electrophysiology: interaction with muscle nicotinic acetylcholine receptors, frog neuromuscular junction; conditions: 160 μM
Description: (§1) Secondly, the inventors determined, using electrophysiology, the ability of compound 8e to interact with muscle nicotinic acetylcholine receptors.

[3] = target: T2, human serum butyrylcholinesterase (BChE) (Homo sapiens, UniProt P06276); experiment: biochemical
T2 construct: BChE isolated from human serum; from tissue; host or cells: human serum
T2 sequence (P06276 29-602): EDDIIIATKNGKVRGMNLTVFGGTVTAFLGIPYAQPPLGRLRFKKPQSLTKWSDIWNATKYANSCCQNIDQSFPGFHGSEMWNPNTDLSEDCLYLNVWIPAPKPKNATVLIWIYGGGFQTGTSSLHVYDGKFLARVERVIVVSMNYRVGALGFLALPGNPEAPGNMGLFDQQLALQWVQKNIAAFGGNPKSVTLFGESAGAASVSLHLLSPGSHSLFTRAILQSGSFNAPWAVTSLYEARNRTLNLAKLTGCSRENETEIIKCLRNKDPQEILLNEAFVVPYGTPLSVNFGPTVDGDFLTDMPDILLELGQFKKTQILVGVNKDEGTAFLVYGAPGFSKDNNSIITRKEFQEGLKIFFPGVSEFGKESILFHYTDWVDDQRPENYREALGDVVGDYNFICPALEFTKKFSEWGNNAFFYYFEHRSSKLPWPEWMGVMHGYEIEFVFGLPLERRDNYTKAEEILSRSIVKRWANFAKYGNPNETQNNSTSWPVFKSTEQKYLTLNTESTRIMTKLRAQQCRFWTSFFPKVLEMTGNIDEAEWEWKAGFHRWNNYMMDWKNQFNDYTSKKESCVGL

[4] = target: T3, muscle nicotinic acetylcholine receptors (Mus musculus, UniProt P02716+P04756+P09690+P20782); experiment: Electrophysiology: interaction with muscle nicotinic acetylcholine receptors, mouse neuromuscular junction
T3 construct: isolated living vertebrate (frog and mouse) neuromuscular preparations; from tissue; host or cells: isolated mouse neuromuscular preparation
T3 sequence (P04756 21-457): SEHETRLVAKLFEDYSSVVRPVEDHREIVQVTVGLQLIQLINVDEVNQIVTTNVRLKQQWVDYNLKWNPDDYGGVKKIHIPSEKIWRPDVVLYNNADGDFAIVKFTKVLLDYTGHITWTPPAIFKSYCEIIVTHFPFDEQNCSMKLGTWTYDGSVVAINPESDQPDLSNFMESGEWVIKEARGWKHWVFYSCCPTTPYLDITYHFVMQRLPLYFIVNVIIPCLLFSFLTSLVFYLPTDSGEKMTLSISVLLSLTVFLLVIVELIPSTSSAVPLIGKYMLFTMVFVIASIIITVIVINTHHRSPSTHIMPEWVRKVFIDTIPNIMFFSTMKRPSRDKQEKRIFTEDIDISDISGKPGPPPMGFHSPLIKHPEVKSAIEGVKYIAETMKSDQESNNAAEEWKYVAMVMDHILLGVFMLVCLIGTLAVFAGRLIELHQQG
T3 sequence (P09690 24-501): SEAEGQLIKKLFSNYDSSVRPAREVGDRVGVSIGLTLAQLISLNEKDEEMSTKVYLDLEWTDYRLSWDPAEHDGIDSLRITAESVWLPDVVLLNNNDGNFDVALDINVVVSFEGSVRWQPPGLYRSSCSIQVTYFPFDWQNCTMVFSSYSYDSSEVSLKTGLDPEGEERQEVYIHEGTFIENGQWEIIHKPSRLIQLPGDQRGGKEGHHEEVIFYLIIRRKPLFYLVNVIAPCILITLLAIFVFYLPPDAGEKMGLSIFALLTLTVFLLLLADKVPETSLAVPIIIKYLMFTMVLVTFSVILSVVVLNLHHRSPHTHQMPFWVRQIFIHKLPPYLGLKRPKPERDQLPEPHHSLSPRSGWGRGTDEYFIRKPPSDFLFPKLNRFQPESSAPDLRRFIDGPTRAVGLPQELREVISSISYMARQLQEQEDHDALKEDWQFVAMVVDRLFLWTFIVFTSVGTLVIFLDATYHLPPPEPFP
T3 sequence (P02716 25-520): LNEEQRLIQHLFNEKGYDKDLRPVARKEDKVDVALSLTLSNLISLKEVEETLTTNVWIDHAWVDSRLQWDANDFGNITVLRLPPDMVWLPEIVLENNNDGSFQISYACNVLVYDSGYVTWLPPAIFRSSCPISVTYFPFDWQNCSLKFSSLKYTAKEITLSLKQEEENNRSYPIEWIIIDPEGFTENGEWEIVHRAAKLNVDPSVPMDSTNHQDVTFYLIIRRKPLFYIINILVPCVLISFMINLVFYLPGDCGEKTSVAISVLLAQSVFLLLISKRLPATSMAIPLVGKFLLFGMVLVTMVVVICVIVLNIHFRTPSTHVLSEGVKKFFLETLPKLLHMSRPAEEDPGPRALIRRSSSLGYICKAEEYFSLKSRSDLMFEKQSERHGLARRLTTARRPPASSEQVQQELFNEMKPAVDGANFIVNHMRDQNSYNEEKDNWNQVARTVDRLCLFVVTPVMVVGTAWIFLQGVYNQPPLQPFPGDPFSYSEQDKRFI
T3 sequence (P20782 21-493): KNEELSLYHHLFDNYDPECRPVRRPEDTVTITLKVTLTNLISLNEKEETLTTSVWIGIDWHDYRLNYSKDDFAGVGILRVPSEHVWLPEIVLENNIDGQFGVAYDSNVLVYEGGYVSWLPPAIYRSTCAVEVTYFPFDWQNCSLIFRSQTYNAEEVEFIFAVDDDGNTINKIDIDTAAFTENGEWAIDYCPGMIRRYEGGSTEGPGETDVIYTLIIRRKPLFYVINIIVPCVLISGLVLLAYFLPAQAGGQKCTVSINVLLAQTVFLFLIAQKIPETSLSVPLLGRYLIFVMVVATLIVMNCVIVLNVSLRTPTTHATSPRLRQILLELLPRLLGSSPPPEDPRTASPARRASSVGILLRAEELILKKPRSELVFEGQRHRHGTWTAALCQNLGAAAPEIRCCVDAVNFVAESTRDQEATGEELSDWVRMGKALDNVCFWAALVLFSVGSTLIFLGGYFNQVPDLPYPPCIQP
Description: as §1

[5] = test system: skeletal neuromuscular junction; experiment: Cellular electrophysiology on isolated mouse neuromuscular preparations
Experimental: This extension of synaptic potentials is observed when the mouse neuromuscular preparations are placed in a normal survival medium (Krebs-Ringer) containing (in mM) NaCl, 151; KCl, 5; MgCl2, 1; CaCl2, 2; glucose, 11; and HEPES-NaOH, 5 (pH 7.4); and when the survival medium contains low concentrations of CaCl2 (0.4-1 mM) and high concentrations of MgCl2 (4-8 mM) to reduce the release of acetylcholine. The extension of synaptic potentials at the neuromuscular junction reflects the mean lifespan of synaptic channels opened by acetylcholine during their interactions with skeletal muscle nicotinic receptors. Inhibition of acetylcholinesterase increases acetylcholine concentration at the synaptic cleft, which allows acetylcholine to bind repeatedly with these receptors, thus extending the duration of synaptic responses.
Thus, the inhibition of acetylcholinesterase by this compound is not accompanied by depolarization of the muscle membrane.
From a pharmacological point of view, the inventors first tested the ability of compound 8e to modify nerve axon conduction.

[6] = human serum BChE, read-out: BChE

Structure (SMILES)	IC50 [1] [nM]	IC50 [3, 6] [nM]	further results
CC[C@H](C)C1=N[C@H]2CC=C3C[C@H]4C(=O)C[C@]5(C)[C@@H]([C@H](C)N(C)C)[C@H](O)C[C@@]5(C)[C@@H]4CC[C@H]3[C@]2(C)CO1 [Compound 8e, (20S)-10(9->1)abeo-4,14α-dimethyl-20-dimethylamino(2′-(S-1-methylpropyl)-4′,4′-dihydro[3′,1′]oxazin)-5α,9-pregn-1(10)-en-16α-ol-11-one]	13	> 1000	block of motor end-plate potentials evoked by motor nerve stimulation [2]: 80%; motor end-plate miniature potentials ([4]; 80 μM, species not given): causes a decrease in amplitude and blocking; block of motor end-plate potentials evoked by motor nerve stimulation ([4]; 160 μM, mouse neuromuscular junction): 80%; nerve axon conduction ([5]; 1 μM to 300 μM, mouse neuromuscular preparations): does not apparently modify nerve conduction; synaptic response half-times (motor end-plate potentials and miniature end-plate potentials) ([5]; 1-25 μM, mouse neuromuscular preparations, normal Krebs-Ringer or low CaCl2/high MgCl2 medium): produces an extension of synaptic response half-times; effect on muscle fiber resting potentials ([5]; concentrations that extend synaptic potentials and higher (160-200 μM)): does not have a significant effect
CC(=O)O[C@@H]1C[C@@]2(C)[C@@H]3CC[C@@H]4C5(CC[C@H](NC(=O)C(C)C)[C@@]4(C)COS(=O)(=O)c4ccc(C)cc4)C[C@@]35C(=O)C[C@]2(C)[C@H]1[C@H](C)N(C)C (stereo partly drawn) [Compound 23, (20S)-16α-acetyl-3-isobutyrylamino-9,19-cyclo-4α-hydroxytosylmethyl-4,14α-dimethyl-20-dimethylamino-5α,9-pregnan-11-one]	4370	> 100000	–
CC(C)C(=O)N[C@H]1CCC23C[C@]24C(=O)C[C@]2(C)[C@@H]([C@H](C)N(C)C)[C@H](O)C[C@@]2(C)[C@@H]4CC[C@H]3[C@]1(C)COCc1ccccc1 (stereo partly drawn) [Compound 27]	16800	5200	–
C[C@@H]([C@H]1[C@H](O)C[C@@]2(C)[C@@H]3CC[C@@H]4C5(CC[C@H](N)[C@@]4(C)CO)C[C@@]35[C@@H](O)C[C@]12C)N(C)C (stereo partly drawn) [Compound 28, (20S)-3-amino-9,19-cyclo-4α-hydroxymethyl-4,14α-dimethyl-20-dimethylamino-5α,9-pregnan-16α,11-diol-11-one]	> 1000	2450	–
CC(C)C(=O)N[C@H]1CCC23C[C@]24C(=O)C[C@]2(C)[C@@H]([C@H](C)[N+](C)(C)[O-])[C@H](O)C[C@@]2(C)[C@@H]4CC[C@H]3[C@]1(C)CO (stereo partly drawn) [Compound 29, (20S)-3-isobutyrylamino-9,19-cyclo-4α-hydroxymethyl-4,14α-dimethyl-20-dimethylazinoyl-5α,9-pregnan-16α,11-ol-11-one]	1420	> 1000	–
CC(C)C1=NC2CC[C@H]3C=C4C(=O)C[C@]5(C)[C@@H]([C@H](C)N(C)C)[C@H](O)C[C@@]5(C)[C@@H]4CC[C@H]3[C@]2(C)CO1 (stereo partly drawn) [Compound 32, (20S)-9(10->19)abeo-4,14α-dimethyl-20-dimethylamino(2′-isopropyl-4′,4′-dihydro[3′,1′]oxazin)-5α,9-pregn-1(10)-en-16α-ol-11-one]	112	–	IC50 [3]: 1440 nM
